These results are taken from US10626081B2, “Farnesoid X receptor agonists and uses thereof” (Metacrine, Inc., priority 2015, dated 2020).

In assay [1] the target is T1, FXR (Homo sapiens, UniProt Q96RI1).
T1 construct: expressed in transfected cells; host or cells: CV-1 cells
T1 sequence (Q96RI1 1-486): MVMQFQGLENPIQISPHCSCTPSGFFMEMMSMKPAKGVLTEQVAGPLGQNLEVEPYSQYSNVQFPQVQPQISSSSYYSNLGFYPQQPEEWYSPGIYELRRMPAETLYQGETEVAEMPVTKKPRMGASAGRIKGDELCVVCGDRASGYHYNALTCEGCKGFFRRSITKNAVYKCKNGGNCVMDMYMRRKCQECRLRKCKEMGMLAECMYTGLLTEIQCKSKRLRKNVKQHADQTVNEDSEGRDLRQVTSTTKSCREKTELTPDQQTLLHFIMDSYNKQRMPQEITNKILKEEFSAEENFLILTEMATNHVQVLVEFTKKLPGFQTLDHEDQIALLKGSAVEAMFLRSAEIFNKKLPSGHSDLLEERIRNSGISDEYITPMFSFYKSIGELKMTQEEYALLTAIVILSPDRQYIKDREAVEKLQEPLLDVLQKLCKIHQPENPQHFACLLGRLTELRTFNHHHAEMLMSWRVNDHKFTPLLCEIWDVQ
T1 sequence (P19793 1-462 partner): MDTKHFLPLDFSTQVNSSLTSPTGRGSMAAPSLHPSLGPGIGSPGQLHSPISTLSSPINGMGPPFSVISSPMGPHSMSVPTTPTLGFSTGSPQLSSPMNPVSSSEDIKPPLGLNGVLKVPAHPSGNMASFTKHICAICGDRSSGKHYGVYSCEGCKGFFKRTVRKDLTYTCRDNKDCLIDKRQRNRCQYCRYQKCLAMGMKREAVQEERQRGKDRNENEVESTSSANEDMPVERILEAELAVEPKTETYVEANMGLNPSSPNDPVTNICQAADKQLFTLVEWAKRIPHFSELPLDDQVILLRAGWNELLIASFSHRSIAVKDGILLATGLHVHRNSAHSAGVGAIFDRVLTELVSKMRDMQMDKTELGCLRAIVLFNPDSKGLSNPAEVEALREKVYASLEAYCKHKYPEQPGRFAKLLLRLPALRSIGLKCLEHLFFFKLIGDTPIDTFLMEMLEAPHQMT
Description: In Vitro FXR Assay (PGL3): luciferase reporter in transfected CV-1 cells. It is filed as cell-based. The following applies: CV-1 cells transfected with hFXR, hRXR, PGL3-ECRE*6-luc; 18 h incubation; luminescence. Put shortly:
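CV-1 cells in charcoal-stripped FBS were transiently co-transfected with full-length human FXR, RXR, an ECRE×6-luciferase reporter, β-gal and YFP plasmids. Transfected cells were reseeded onto half-log compound dilutions and incubated 18 h. Luciferase luminescence was read after lysis, and EC50 was determined.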
(In a reporter assay the amount or activity of a reporter protein is the signal.)

The target of assay [2] is T1, FXR. Description: In Vitro FXR Assay (TK): TK-ECRE-luc reporter in transfected CV-1 cells. The assay is classed as cell-based. Conditions: CV-1 cells transfected with hFXR, hRXR, 18 h incubation, luminescence. The method in brief: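 CV-1 cells in charcoal-stripped FBS medium were transiently cotransfected with hFXR, hRXR, TK-ECRE-luc and pCMX-YFP plasmids. After 18 h, compounds serially diluted in DMSO were added for 18 h at 37 °C, 5% CO2, then cells were lysed and luminescence read.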

As usually defined, the EC50 is the concentration that produces a half-maximal response. A lower EC50 goes with an effect from little substance. For `COC(=O)/C=C/c1cccc(N(Cc2ccc(-c3ccc(N(C)C)cc3)c(F)c2)C(=O)C2CCCCC2)c1` [compound 50, (E)-methyl 3-(3-(N-((4′-(dimethylamino)-2-fluoro-[1,1′-biphenyl]-4-yl)methyl)cyclohexanecarboxamido)phenyl) acrylate], at FXR [1], the “Cmpd/Fex (ratio of the EC50 for the test compound relative to the EC50 of the Fexaramine control)” value was “+++ (‘+++’ means Cmpd/Fex < 10)”. This molecule also gave an EC50 at FXR [2] of no more than 1000 nM.
`COC(=O)/C=C/c1cccc(N(Cc2ccc(-c3ccc(N(C)C)cc3)cc2F)C(=O)C2CCCCC2)c1` [compound 51, (E)-methyl 3-(3-(N-((4′-(dimethylamino)-3-fluoro-[1,1′-biphenyl]-4-yl)methyl)cyclohexanecarboxamido)phenyl)acrylate]: the “Cmpd/Fex (ratio of the EC50 for the test compound relative to the EC50 of the Fexaramine control)” value at FXR [1] was “+++ (‘+++’ means Cmpd/Fex < 10)”. Also, the EC50 on FXR [2] is no more than 1000 nM.
Taken in the same sequence, the figures for `COC(=O)/C=C/c1cccc(N(Cc2ccc(-c3ccc(OC)c(C)c3)cc2)C(=O)C2CCCCC2)c1` [compound 52, (E)-Methyl 3-(3-(N-((4′-methoxy-3′-methyl-[1,1′-biphenyl]-4-yl)methyl)cyclohexanecarboxamido)phenyl) acrylate] were “+++ (‘+++’ means Cmpd/Fex < 10)” and no more than 1000 nM.
Taken in the same sequence, the figures for `COC(=O)/C=C/c1cccc(N(Cc2ccc(-c3ccc(N(C)C)cc3)c(C)c2)C(=O)C2CCCCC2)c1` [compound 53, (E)-Methyl 3-(3-(N-((4′-(dimethylamino)-2-methyl-[1,1′-biphenyl]-4-yl)methyl)cyclohexanecarboxamido)phenyl) acrylate] were “+++ (‘+++’ means Cmpd/Fex < 10)” and 1000 to 10000 nM.
Turning to `COC(=O)/C=C/c1cccc(N(Cc2ccc(-c3ccc(N(C)C)cc3)cc2C)C(=O)C2CCCCC2)c1` [compound 54, (E)-Methyl 3-(3-(N-((4′-(dimethylamino)-3-methyl-[1,1′-biphenyl]-4-yl)methyl)cyclohexanecarboxamido)phenyl) acrylate], the “Cmpd/Fex (ratio of the EC50 for the test compound relative to the EC50 of the Fexaramine control)” value on FXR [1] is “+++ (‘+++’ means Cmpd/Fex < 10)”. At FXR [2], this molecule displayed an EC50 of no more than 1000 nM.
For `COC(=O)/C=C/c1cccc(N(Cc2ccc(-c3cccc(O)c3)cc2)C(=O)C2CCCCC2)c1` [compound 55, (E)-Methyl 3-(3-(N-((3′-hydroxy-[1,1′-biphenyl]-4-yl)methyl)cyclohexanecarboxamido)phenyl) acrylate], on FXR [1], the “Cmpd/Fex (ratio of the EC50 for the test compound relative to the EC50 of the Fexaramine control)” value was “+ (‘+’ means Cmpd/Fex > 100)”. This molecule registered an EC50 at FXR [2] greater than 10000 nM.
`COC(=O)/C=C/c1cccc(N(Cc2ccc(-c3ccccc3O)cc2)C(=O)C2CCCCC2)c1` [compound 56, (E)-Methyl 3-(3-(N-((2′-hydroxy-[1,1′-biphenyl]-4-yl)methyl)cyclohexanecarboxamido)phenyl) acrylate]: the “Cmpd/Fex (ratio of the EC50 for the test compound relative to the EC50 of the Fexaramine control)” value on FXR [1] is reported as “++ (‘++’ means Cmpd/Fex > 10 & < 100)”. At FXR [2], this molecule gave a half-maximal effective concentration (EC50) of 1000 to 10000 nM.
`COC(=O)/C=C/c1cccc(N(Cc2ccc(-c3ccc(O)cc3)cc2)C(=O)C2CCCCC2)c1` [compound 57, (E)-Methyl 3-(3-(N-((4′-hydroxy-[1,1′-biphenyl]-4-yl)methyl)cyclohexanecarboxamido)phenyl) acrylate]: the “Cmpd/Fex (ratio of the EC50 for the test compound relative to the EC50 of the Fexaramine control)” value on FXR [1] was “+ (‘+’ means Cmpd/Fex > 100)”. At FXR [2], this molecule came in with an EC50 greater than 10000 nM.
In the case of `COC(=O)/C=C/c1cccc(N(Cc2ccc(-c3ccc(C)c(OC)c3)cc2)C(=O)C2CCCCC2)c1` [compound 58, (E)-Methyl 3-(3-(N-((3′-methoxy-4′-methyl-[1,1′-biphenyl]-4-yl)methyl)cyclohexanecarboxamido)phenyl) acrylate], on FXR [1], the “Cmpd/Fex (ratio of the EC50 for the test compound relative to the EC50 of the Fexaramine control)” value is “+++ (‘+++’ means Cmpd/Fex < 10)”. The same molecule showed an EC50 on FXR [2] of 1000 to 10000 nM.
In the case of `COC(=O)/C=C/c1cccc(N(Cc2ccc(-c3c(F)cccc3F)cc2)C(=O)C2CCCCC2)c1` [compound 59, (E)-Methyl 3-(3-(N-((2′,6′-difluoro-[1,1′-biphenyl]-4-yl)methyl)cyclohexanecarboxamido)phenyl) acrylate], the “Cmpd/Fex (ratio of the EC50 for the test compound relative to the EC50 of the Fexaramine control)” value at FXR [1] was “+ (‘+’ means Cmpd/Fex > 100)”. This molecule displayed a half-maximal effective concentration (EC50) on FXR [2] of 1000 to 10000 nM.
Consider `COC(=O)/C=C/c1cccc(N(Cc2ccc(-c3ccc(N(C)C(=O)OC(C)(C)C)cc3)cc2)C(=O)C2CCCCC2)c1` [compound 60, (E)-Methyl 3-(3-(N-((4′-((tert-butoxycarbonyl)(methyl)amino)-[1,1′-biphenyl]-4-yl)methyl)cyclohexanecarboxamido)phenyl) acrylate], for which the “Cmpd/Fex (ratio of the EC50 for the test compound relative to the EC50 of the Fexaramine control)” value on FXR [1] is on record as “+ (‘+’ means Cmpd/Fex > 100)”. At FXR [2], this molecule gave an EC50 greater than 10000 nM.
As for `CNc1ccc(-c2ccc(CN(C(=O)C3CCCCC3)c3cccc(/C=C/C(=O)OC)c3)cc2)cc1` [compound 61, (E)-Methyl 3-(3-(N-((4′-(methylamino)-[1,1′-biphenyl]-4-yl)methyl)cyclohexanecarboxamido)phenyl) acrylate], at FXR [1], the “Cmpd/Fex (ratio of the EC50 for the test compound relative to the EC50 of the Fexaramine control)” value is given as “+++ (‘+++’ means Cmpd/Fex < 10)”. The same molecule registered an EC50 at FXR [2] of 1000 to 10000 nM.
As to `COC(=O)/C=C/c1cccc(N(Cc2ccc(-c3ccc4c(ccn4C)c3)cc2)C(=O)C2CCCCC2)c1` [compound 62, (E)-Methyl 3-(3-(N-(4-(1-methyl-1H-indol-5-yl)benzyl)cyclohexanecarboxamido)phenyl) acrylate], on FXR [1], the “Cmpd/Fex (ratio of the EC50 for the test compound relative to the EC50 of the Fexaramine control)” value is reported as “+++ (‘+++’ means Cmpd/Fex < 10)”. For the same molecule, the EC50 on FXR [2] is no more than 1000 nM.
For `COC(=O)/C(C)=C/c1cccc(N(Cc2ccc(-c3ccc(N(C)C)cc3)cc2)C(=O)C2CCCCC2)c1` [compound 63, (E)-Methyl 3-(3-(N-((4′-(dimethylamino)-[1,1′-biphenyl]-4-yl)methyl)cyclohexanecarboxamido)phenyl)-2-methylacrylate] the same measures were “+++ (‘+++’ means Cmpd/Fex < 10)” and 1000 to 10000 nM.
For `COC(=O)/C=C/c1cccc(N(Cc2ccc(-c3ccc(OC)c(C#N)c3)cc2)C(=O)C2CCCCC2)c1` [compound 64, (E)-Methyl 3-(3-(N-((3′-cyano-4′-methoxy-[1,1′-biphenyl]-4-yl)methyl)cyclohexanecarboxamido)phenyl) acrylate], the “Cmpd/Fex (ratio of the EC50 for the test compound relative to the EC50 of the Fexaramine control)” value at FXR [1] is reported as “+++ (‘+++’ means Cmpd/Fex < 10)”. Also, the EC50 at FXR [2] was no more than 1000 nM.
For `COC(=O)/C=C/c1cccc(N(Cc2ccc(-c3ccccn3)cc2)C(=O)C2CCCCC2)c1` [compound 65, (E)-Methyl 3-(3-(N-(4-(pyridin-2-yl)benzyl)cyclohexanecarboxamido)phenyl) acrylate] the same measures were “+ (‘+’ means Cmpd/Fex > 100)” and 1000 to 10000 nM.
For `COC(=O)/C=C/c1cccc(N(Cc2ccc(-c3ccccc3C#N)cc2)C(=O)C2CCCCC2)c1` [compound 66, (E)-Methyl 3-(3-(N-((2′-cyano-[1,1′-biphenyl]-4-yl)methyl)cyclohexanecarboxamido)phenyl) acrylate] the same measures were “+ (‘+’ means Cmpd/Fex > 100)” and 1000 to 10000 nM.
In the case of `COC(=O)/C=C/c1cccc(N(Cc2ccc(-c3nccs3)cc2)C(=O)C2CCCCC2)c1` [compound 67, (E)-Methyl 3-(3-(N-(4-(thiazol-2-yl)benzyl)cyclohexanecarboxamido)phenyl) acrylate], the “Cmpd/Fex (ratio of the EC50 for the test compound relative to the EC50 of the Fexaramine control)” value at FXR [1] is given as “+ (‘+’ means Cmpd/Fex > 100)”. Besides, the EC50 at FXR [2] fell in the range of 1000 to 10000 nM.
For `COC(=O)/C=C/c1cccc(N(Cc2ccc(-c3cscn3)cc2)C(=O)C2CCCCC2)c1` [compound 68, (E)-Methyl 3-(3-(N-(4-(thiazol-4-yl)benzyl)cyclohexanecarboxamido)phenyl) acrylate] the same measures were “+ (‘+’ means Cmpd/Fex > 100)” and 1000 to 10000 nM.
With `COC(=O)/C=C/c1cccc(N(Cc2ccc(-c3cncs3)cc2)C(=O)C2CCCCC2)c1` [compound 69, (E)-Methyl 3-(3-(N-(4-(thiazol-5-yl)benzyl)cyclohexanecarboxamido)phenyl) acrylate], on FXR [1], the “Cmpd/Fex (ratio of the EC50 for the test compound relative to the EC50 of the Fexaramine control)” value is reported as “+ (‘+’ means Cmpd/Fex > 100)”. The molecule also yielded a 50% effective concentration (EC50) on FXR [2] of 1000 to 10000 nM.
